Experimental findings from the NIST ThermoML archive (doi:10.1021/acs.jced.6b00655) are described below.

For data set [1] the following is noted: 100 kPa, Liquid, Vibrating tube method.
Data set [2] is described as follows: xn = mol fraction of the nth substance listed. The note with it: 343.15 K, 100 kPa, Liquid, Vibrating tube method.

Structures are written as SMILES. “And” between values parts separate entries of the source, which are not always exact repeats. Equal values may be shown once. Numbers after ± are expanded uncertainties.

On to `CCCC[N+]1(C)CCCC1.O=S(=O)([N-]S(=O)(=O)C(F)(F)F)C(F)(F)F`, for which the mass density (in general, mass per unit of volume) in data set [1] (283.15 K) is 1410.45 ± 10 kg/m3 and 1407.6 ± 10 kg/m3.
The same measure, in the same setting: to `CCCC[N+]1(C)CCCC1.N#CN=C=[N-]` [1-butyl-1-methylpyrrolidinium dicyanamide] belongs 1021.84 ± 10 kg/m3 and 1022.97 ± 10 kg/m3 and 1022.94 ± 10 kg/m3; to `CCCC[N+]1(C)CCCC1.O=S(=O)([O-])C(F)(F)F` [1-butyl-1-methylpyrrolidinium trifluoromethanesulfonate], 1263.28 ± 10 kg/m3 and 1263.17 ± 10 kg/m3.
For the compound `CCCC[N+](C)(C)C.O=S(=O)([N-]S(=O)(=O)C(F)(F)F)C(F)(F)F` [butyltrimethylammonium bis(trifluoromethylsulfonyl)imide], the mass density in data set [1] (343.15 K) is 1348.32 ± 10 kg/m3 and 1346.21 ± 10 kg/m3.
Regarding `CCCC[N+](C)(CCCC)CCCC.O=S(=O)([N-]S(=O)(=O)C(F)(F)F)C(F)(F)F` [tributylmethylammonium bis((trifluoromethyl)sulfonyl)imide], the mass density in data set [1] (343.15 K) is 1224.15 ± 10 kg/m3 and 1224.18 ± 10 kg/m3.
As for `CCCC[N+](C)(CCCC)CCCC.O=S(=O)([N-]S(=O)(=O)C(F)(F)F)C(F)(F)F` [tributylmethylammonium bis((trifluoromethyl)sulfonyl)imide] + Cc1ccccc1C, the mass density is reported as 1224.15 ± 10 kg/m3 in data set [2] (x2 = 0); 1204.93 ± 10 kg/m3 in data set [2] (x2 = 0.152); 1188.05 ± 10 kg/m3 in data set [2] (x2 = 0.26); 1168.37 ± 10 kg/m3 in data set [2] (x2 = 0.365); 1134.17 ± 10 kg/m3 in data set [2] (x2 = 0.506); 1096.91 ± 11 kg/m3 in data set [2] (x2 = 0.623). Moreover, in data set [2] (x2 = 0.751), the mass density is given as 1046.57 ± 11 kg/m3.
Turning to `CCCC[N+](C)(CCCC)CCCC.O=S(=O)([N-]S(=O)(=O)C(F)(F)F)C(F)(F)F` [tributylmethylammonium bis((trifluoromethyl)sulfonyl)imide] + c1ccccc1, the mass density in data set [2] (x2 = 0) is 1224.15 ± 10 kg/m3; in data set [2] (x2 = 0.048), 1220.37 ± 10 kg/m3; in data set [2] (x2 = 0.097), 1216.25 ± 10 kg/m3; in data set [2] (x2 = 0.198), 1204.31 ± 10 kg/m3; in data set [2] (x2 = 0.294), 1188.64 ± 10 kg/m3; in data set [2] (x2 = 0.393) it was 1168.17 ± 10 kg/m3. The mass density in data set [2] (x2 = 0.506) is recorded as 1139.35 ± 10 kg/m3; in data set [2] (x2 = 0.596), 1112.34 ± 11 kg/m3; in data set [2] (x2 = 0.701), 1076.48 ± 11 kg/m3; in data set [2] (x2 = 0.738), 1062.44 ± 11 kg/m3; in data set [2] (x2 = 0.774) it was 1048.36 ± 11 kg/m3; in data set [2] (x2 = 0.801), 1037.22 ± 11 kg/m3. Further, the mass density is listed as 1028.14 ± 11 kg/m3 in data set [2] (x2 = 0.823), 1016.43 ± 11 kg/m3 in data set [2] (x2 = 0.85) and 1010.24 ± 11 kg/m3 in data set [2] (x2 = 0.865).
